US11304919B2, “Utilization of cilastatin in inhibiting renal disorder” (NIIGATA UNIVERSITY, priority 2018, dated 2022)

Key:
[1] = biological target: megalin (Rattus norvegicus, UniProt P98158); details: 1 mg cilastatin injected in advance; 1.5 μg protein of interest; FIG. 27
Protocol: According to the method of Orlando, et al, megalin protein purified from Sprague-Dawley (SD) rat kidneys was immobilized on quartz crystals. To be specific, with the use of an immobilization kit for AFFNIX® (Initium Inc.) and according to the recommended protocol for the kit, a megalin protein solution was prepared in Buffer A as provided with the kit to a concentration of 62.5 μg/mL, and placed and immobilized onto quartz crystals mounted in a holder.
More specifically, the protein of interest was injected in aliquots of the megalin protein-immobilized quartz crystals in 200 μL of buffer to measure frequency. The same measurement was done on quartz crystals, as a control, on which the same amount of bovine serum albumin (BAS) was solid phased instead of megalin. Thus, the specific binding ability of the protein of interest to megalin was analyzed.
Further, aliquots of megalin protein-immobilized quartz crystals in a buffer in which 1 mg of cilastatin was injected in advance were mounted in the measurement instrument, and the frequency was confirmed to be stable, and then, 1.5 μg of the protein of interest was injected to measure frequency over time, whereby the antagonizing activity of cilastatin against the binding of the protein of interest to megalin was analyzed. The same experiment was performed for the control group.

[2] = system: protein (carrier) used in Reference Example 5; details: 0-50 mM cilastatin; 10 mM iomeprol, ioversol, iodixanol, iopromide or iohexol solid-phased beads; FIGS. 22-26
Protocol: Different solutions, as mentioned below, were prepared using 100 mM KCL buffer (as mentioned in Reference Example 4) and the protein used in Reference Example 5, and were reacted at 4° C. for 2 hours.
a) Solution containing 25 ng/μL of the protein of interest and 0 mM of the contrast medium
b) Solution containing 25 ng/μL of the protein of interest and 10 mM of the contrast medium
c) Solution containing 25 ng/μL of the protein of interest and 25 mM of the contrast medium
d) Solution containing 25 ng/μL of the protein of interest and 50 mM of the contrast medium
Next, the above-prepared solutions were each added to 5 mg of the 0 mM or 10 mM contrast solid-phased beads dispersed and washed by the procedure described in Reference Example 4, and were reacted at 4° C. for 4 hours. The solution/beads combinations adopted were as mentioned below.
Then, the different mixtures were treated by following the procedure described in Reference Example 4, and heat-eluted samples were prepared from the different reaction solutions.
Different solutions, as mentioned below, were prepared using 100 mM KCL buffer (as mentioned in Reference Example 4), and were reacted at 4° C. for 2 hours.
a′) Solution containing 25 ng/μL of the protein of interest and 0 mM of cilastatin
b′) Solution containing 25 ng/μL of the protein of interest and 10 mM of cilastatin […]

[3] = system: C57BL/6J mice; assay: Inhibition of contrast-induced renal injuries in murine contrast nephropathy model (Example 2); format: in vivo, mouse; details: 200 μL iomeprol + 400 mg/kg cilastatin
Protocol: In order to confirm the ability of cilastatin to inhibit renal injuries, C57BL/6J mice were simultaneously administered with an iodinated contrast medium and cilastatin, and the results were analyzed.
Left kidneys were extracted from the C57BL/6J mice, and 14 days later, right kidney pedicles were ligated for 30 minutes. Thereafter, reperfusion was carried out. […]
a) Contrast medium+cilastatin-treated group: 200 μL of iomeprol (CM)+400 mg/kg cilastatin (CS) (100 LL) b) Contrast medium+normal saline-treated group: 200 μL of iomeprol (CM)+100 μL of NS For each of the groups, after 48 hours from the medication, blood and urine samples were collected, and serum Cr, MN and cystatin C levels, and urinary Cr, NAG and KIM-1 levels were measured. Further, right kidneys were extracted and histologically evaluated by immunostaining with KIM-1 and staining with PAS. […] Serum cystatin C and urinary KIM-1 measurements were contracted to Oriental Yeast Co., Ltd.
0.5±: Clear but weak granular staining present focally along the luminal surface of non-atrophic proximal tubules 1+: Clear but weak granular staining completely surrounding the luminal surface of non-atrophic proximal tubules 2+: Moderately intense granular staining completely surrounding the luminal surface of non-atrophic proximal tubules and extending into intercellular junctions 3+: Strong large granular staining completely surrounding the luminal surface of non-atrophic proximal tubules and extending into intercellular junctions […]
Individuals meeting these criteria were regarded as individuals with onset of contrast nephropathy.

[4] = biological target: T1, megalin (Mus musculus, UniProt A2ARV4)
Description: In this example, it was verified, using an electron probe microanalyzer (EPMA), whether megalin-dependent internalization of contrast media (iodine) into murine renal proximal tubular epithelial cells was inhibited by treatment with cilastatin.
C57BL/6J mice were divided into the following groups and administered with the following agents from the tail vein.
Therefore, by calculating a ratio of X-ray intensity between iodine (I) and nitrogen (N) (I/N) in a specified area of thin-film biological samples, iodine (I) levels in different samples can be relatively quantified and compared. X-ray count ratio=(X-ray count of iodine/unit area)/(X-ray count of nitrogen/(unit area))
Based on this principle, iodine levels in a specified area were relatively quantified and compared.
Further, 1980 μm^2 regions containing cortex portions were analyzed, and seven 500 μm^2 areas were chosen from the cortex portions so as not to overlap with each other. An average was calculated of the I/N X-ray ratios in the seven areas, and regarded as an I/N X-ray ratio for one individual. Those I/N X-ray ratios for six individuals in each of the a) and b) groups were quantified and compared.

[5] = biological target: T1, megalin; details: in vivo
Description: (§1) EPMA is an electron microprobe (EMP) instrument that analyzes the constituent elements of a substance of interest by irradiating electron beams onto the substance and measuring the wavelengths and intensities of characteristic X-rays unique to the different elements, which are generated by the electron beams. […] The behaviors of contrast media per se can be verified by analyzing iodine content distribution.
(§2) In order to use right kidneys for analysis, 3 mm-thick sections containing a kidney pedicle portion were prepared, embedded in OCT compound, freeze-fixed with liquid nitrogen, and stored at −80° C.
(§3) Next, the stored sections were sliced at a thickness of 4 μm using a cryostat (CM1850, Leica Biosystems), and the obtained slices were attached onto carbon-coated grids and freeze-dried overnight.
(§4) 378 μm^2 cortical areas in the prepared tissue slices were analyzed by EPMA (EPMA 1610, Shimadzu Corporation, Kyoto, Japan) to map iodine present in the structures of the contrast media.

[6] = system: megalin; details: mouse, in vivo
Description: as §1, §2, §3, §4

T1 sequence (A2ARV4 26-4660): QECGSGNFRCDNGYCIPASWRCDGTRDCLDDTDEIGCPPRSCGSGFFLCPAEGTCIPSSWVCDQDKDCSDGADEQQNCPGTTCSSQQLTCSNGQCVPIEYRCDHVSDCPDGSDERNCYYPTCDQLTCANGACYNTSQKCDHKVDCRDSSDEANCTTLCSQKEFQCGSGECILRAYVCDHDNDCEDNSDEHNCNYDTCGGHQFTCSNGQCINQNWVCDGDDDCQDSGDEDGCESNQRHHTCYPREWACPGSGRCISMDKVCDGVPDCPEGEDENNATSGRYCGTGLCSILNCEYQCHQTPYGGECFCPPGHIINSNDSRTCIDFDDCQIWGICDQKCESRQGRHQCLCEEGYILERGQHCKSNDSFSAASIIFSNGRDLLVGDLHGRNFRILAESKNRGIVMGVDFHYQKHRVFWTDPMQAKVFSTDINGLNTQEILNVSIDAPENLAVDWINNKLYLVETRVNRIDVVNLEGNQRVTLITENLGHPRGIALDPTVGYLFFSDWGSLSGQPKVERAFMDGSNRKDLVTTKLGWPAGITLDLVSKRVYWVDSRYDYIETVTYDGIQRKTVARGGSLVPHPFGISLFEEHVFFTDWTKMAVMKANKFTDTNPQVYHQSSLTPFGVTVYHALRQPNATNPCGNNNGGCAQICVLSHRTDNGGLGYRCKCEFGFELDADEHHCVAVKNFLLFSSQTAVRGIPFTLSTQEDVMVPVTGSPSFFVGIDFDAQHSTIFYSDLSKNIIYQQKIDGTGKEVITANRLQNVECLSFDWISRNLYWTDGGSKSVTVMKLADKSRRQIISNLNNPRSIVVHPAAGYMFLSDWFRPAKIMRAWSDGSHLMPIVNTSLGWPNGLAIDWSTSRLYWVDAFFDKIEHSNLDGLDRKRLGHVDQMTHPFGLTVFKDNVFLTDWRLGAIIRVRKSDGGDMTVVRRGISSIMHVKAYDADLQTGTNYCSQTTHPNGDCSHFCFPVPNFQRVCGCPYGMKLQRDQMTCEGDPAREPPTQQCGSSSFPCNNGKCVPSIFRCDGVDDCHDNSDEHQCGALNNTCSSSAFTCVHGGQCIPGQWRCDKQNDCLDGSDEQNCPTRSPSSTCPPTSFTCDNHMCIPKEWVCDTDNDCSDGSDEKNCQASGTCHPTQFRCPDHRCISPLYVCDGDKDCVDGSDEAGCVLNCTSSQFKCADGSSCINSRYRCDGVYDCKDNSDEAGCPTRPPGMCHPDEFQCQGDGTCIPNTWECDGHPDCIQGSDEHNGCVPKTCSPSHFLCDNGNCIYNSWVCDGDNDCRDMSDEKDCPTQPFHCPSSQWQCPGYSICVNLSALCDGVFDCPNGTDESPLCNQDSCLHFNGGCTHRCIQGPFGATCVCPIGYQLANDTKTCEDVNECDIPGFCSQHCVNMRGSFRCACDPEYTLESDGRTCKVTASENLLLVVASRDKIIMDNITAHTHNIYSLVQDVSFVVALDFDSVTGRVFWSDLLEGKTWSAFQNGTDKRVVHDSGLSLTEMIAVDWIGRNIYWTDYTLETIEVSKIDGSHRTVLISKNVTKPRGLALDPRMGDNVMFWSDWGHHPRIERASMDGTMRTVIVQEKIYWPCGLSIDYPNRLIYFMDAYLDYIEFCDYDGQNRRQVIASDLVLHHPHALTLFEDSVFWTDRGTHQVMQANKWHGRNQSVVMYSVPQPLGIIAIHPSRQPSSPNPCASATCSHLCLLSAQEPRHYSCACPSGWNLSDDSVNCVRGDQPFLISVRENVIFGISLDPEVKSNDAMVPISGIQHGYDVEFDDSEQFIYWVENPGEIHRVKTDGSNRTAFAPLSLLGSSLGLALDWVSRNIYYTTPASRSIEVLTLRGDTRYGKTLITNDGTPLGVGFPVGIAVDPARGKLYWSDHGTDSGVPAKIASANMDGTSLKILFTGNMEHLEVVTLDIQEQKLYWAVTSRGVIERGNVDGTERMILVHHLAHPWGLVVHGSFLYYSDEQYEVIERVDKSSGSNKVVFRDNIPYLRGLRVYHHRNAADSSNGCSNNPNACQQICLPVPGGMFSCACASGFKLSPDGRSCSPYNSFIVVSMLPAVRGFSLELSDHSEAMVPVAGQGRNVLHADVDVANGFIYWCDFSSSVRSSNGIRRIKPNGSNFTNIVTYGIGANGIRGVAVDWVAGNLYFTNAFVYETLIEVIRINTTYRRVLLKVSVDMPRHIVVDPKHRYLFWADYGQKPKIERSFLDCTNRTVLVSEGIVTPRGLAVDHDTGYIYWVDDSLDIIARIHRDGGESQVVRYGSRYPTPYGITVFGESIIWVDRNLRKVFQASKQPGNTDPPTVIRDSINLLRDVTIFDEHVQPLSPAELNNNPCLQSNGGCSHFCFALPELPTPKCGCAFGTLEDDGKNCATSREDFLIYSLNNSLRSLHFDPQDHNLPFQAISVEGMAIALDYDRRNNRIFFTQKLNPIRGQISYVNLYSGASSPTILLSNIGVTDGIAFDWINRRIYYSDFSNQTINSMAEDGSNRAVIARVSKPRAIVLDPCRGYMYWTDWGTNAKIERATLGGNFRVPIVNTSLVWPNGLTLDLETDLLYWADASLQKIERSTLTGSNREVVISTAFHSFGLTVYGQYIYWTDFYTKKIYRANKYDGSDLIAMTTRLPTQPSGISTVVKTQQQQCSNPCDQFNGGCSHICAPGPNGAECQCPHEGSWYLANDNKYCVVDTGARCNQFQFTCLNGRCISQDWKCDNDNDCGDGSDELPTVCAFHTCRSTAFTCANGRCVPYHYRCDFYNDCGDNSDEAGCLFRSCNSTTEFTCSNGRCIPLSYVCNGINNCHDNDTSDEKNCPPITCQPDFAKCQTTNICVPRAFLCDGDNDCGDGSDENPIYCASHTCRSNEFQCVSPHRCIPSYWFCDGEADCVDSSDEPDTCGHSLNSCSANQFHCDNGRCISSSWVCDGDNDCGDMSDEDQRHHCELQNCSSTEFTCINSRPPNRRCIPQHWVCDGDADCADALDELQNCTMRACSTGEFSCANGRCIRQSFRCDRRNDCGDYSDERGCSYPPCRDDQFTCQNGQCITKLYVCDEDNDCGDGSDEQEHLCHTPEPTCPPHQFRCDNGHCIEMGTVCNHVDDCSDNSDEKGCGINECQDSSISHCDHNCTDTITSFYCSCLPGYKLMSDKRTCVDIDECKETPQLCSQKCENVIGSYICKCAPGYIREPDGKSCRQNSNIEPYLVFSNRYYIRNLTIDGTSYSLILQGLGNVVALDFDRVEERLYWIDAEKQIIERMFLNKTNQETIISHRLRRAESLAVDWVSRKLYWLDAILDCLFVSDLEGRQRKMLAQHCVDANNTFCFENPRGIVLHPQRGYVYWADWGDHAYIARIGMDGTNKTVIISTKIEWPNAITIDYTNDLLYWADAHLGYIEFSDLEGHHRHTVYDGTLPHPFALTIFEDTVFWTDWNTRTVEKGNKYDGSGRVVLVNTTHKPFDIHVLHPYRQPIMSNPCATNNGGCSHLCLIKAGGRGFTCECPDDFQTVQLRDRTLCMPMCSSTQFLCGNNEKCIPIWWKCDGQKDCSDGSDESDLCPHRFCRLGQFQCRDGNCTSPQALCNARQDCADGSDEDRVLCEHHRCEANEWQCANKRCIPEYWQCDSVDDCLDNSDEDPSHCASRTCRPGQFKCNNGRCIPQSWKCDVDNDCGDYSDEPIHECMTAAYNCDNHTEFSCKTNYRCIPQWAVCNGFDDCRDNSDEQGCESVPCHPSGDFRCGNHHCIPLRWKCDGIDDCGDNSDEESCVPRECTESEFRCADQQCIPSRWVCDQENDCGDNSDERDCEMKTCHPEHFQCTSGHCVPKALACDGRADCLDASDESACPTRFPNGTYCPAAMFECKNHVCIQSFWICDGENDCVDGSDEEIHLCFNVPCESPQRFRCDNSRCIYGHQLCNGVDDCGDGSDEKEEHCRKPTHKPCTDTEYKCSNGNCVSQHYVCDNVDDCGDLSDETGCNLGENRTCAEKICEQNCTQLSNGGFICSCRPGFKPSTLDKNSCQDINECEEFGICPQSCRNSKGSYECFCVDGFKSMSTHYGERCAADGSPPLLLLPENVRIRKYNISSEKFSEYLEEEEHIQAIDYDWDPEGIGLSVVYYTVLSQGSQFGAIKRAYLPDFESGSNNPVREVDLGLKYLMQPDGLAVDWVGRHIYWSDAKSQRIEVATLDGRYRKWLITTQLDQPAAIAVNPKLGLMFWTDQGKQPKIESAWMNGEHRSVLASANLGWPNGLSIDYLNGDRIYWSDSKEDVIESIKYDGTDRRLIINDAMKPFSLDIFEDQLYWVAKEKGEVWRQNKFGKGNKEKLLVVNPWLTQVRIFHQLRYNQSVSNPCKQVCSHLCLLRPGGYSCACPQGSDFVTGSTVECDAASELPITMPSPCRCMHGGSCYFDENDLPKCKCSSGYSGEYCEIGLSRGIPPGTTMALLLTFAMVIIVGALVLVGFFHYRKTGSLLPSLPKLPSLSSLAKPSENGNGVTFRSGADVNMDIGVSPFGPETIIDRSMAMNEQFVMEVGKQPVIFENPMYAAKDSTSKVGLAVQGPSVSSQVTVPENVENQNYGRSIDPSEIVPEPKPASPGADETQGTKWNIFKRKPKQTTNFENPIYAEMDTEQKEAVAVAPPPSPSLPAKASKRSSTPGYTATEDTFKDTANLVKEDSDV

Row | Compound | iodine detected in kidney slices by EPMA, control mice [5] | iodine contents detected in kidney slices by EPMA, NDRG1-Cre mice versus control mice [6] | further results
1 | CC1(C)C[C@@H]1C(=O)N/C(=C\CCCCSC[C@H](N)C(=O)O)C(=O)O [cilastatin, (Z)-7-[[(R)-2-amino-2-carboxyethyl]thio]-2-[[[(S)-2,2-dimethylcyclopropyl]carbonyl]amino]-2-heptenoic acid] |  |  | change in frequency after injection of the protein of interest onto megalin-immobilized quartz crystals (QCM) [1]: reduced; band corresponding to the protein of interest bound to contrast-bound beads, in the coexistence of cilastatin [2]: decreased; increase in urinary KIM-1 levels versus contrast medium+normal saline group ([3]; 48 h, FIG. 16): significantly (t-test) reduced; percentage of individuals with onset of contrast nephropathy ([3]; 48 h after medication): 0%; expression of KIM-1 in kidney tissue (staining intensity scores) versus contrast medium+normal saline group ([3]; outer cortices (S1 and S2 segments), FIG. 18): significantly (t-test) lower; detection of iodine by EPMA in kidney tissue versus contrast medium+normal saline groups ([4]; 400 mg/kg cilastatin + 100 μL contrast medium, tail vein, FIG. 11 (iomeprol)): decrease in the detection of iodine; I/N X-ray ratio in kidney cortex versus contrast medium+normal saline groups ([4]; 400 mg/kg cilastatin + 100 μL iomeprol, iohexol, ioversol or iodixanol, six individuals per group, FIGS. 12 to 15): significantly (t-test) lower
2 | CC(=O)N(CC(O)CN(C(C)=O)c1c(I)c(C(=O)NCC(O)CO)c(I)c(C(=O)NCC(O)CO)c1I)c1c(I)c(C(=O)NCC(O)CO)c(I)c(C(=O)NCC(O)CO)c1I (stereo not shown) [iodixanol] | High concentrations of iodine were detected | lower | 
3 | CC(=O)N(CC(O)CO)c1c(I)c(C(=O)NCC(O)CO)c(I)c(C(=O)NCC(O)CO)c1I (stereo not shown) [iohexol] | High concentrations of iodine were detected | lower | 
4 | C[C@H](O)C(=O)Nc1c(I)c(C(=O)NC(CO)CO)c(I)c(C(=O)NC(CO)CO)c1I [iopamidol] | High concentrations of iodine were detected | lower | 
5 | COCC(=O)Nc1c(I)c(C(=O)NCC(O)CO)c(I)c(C(=O)N(C)CC(O)CO)c1I (stereo not shown) [iopromide] | High concentrations of iodine were detected | lower | 
6 | O=C(NCC(O)CO)c1c(I)c(C(=O)NCC(O)CO)c(I)c(N(CCO)C(=O)CO)c1I (stereo not shown) [ioversol] |  | lower | 
